# Assay results as given in patent US11912701B2, “Protein kinase inhibitors for promoting liver regeneration or reducing or preventing hepatocyte death” (HEPAREGENIX GMBH, priority 2018, dated 2024).
# How the values were obtained:
# MKK4 [1] = molecular target: T1, MKK4 (Homo sapiens, UniProt P45985); test: KINOMEscan competition binding assay, MKK4; conditions: residual percent of control binding (PoC) at 100 nM
# T1 construct: S84/D399; host or cells: HEK-293
# T1 sequence (P45985 84-399): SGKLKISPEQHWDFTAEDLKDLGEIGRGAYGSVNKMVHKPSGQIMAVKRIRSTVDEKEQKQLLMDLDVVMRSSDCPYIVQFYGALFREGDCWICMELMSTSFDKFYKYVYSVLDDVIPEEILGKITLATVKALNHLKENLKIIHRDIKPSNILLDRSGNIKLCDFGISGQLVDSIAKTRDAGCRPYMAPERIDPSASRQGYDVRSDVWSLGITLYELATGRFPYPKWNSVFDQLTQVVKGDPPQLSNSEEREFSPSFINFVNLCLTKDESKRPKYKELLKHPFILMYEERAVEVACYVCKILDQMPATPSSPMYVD
# Summary of the method: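 KINOMEscan competition of compound versus immobilized ligand for DNA-tagged MKK4 expressed in HEK-293 cells. Bound kinase was quantified by qPCR after elution.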
# BRaf = molecular target: T2, BRaf (Homo sapiens, UniProt P15056); test: KINOMEscan competition binding assay, BRaf; conditions: ratio PoC (off-target)/PoC (MKK4)
# T2 construct: purchased ProQinase GmbH, Freiburg, Germany (33PanQinase Assay Service)
# Summary of the method: (§1)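 DNA-tagged kinases expressed in HEK-293 cells compete between immobilized ligand on blocked beads and test compound at 100 nM; kinase retained on beads quantified by qPCR of the tag.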
# MKK4 [2] = molecular target: T3, MKK4 (Homo sapiens, UniProt P45985); test: 33PanQinase enzyme assay, MKK4; format: biochemical; conditions: assay 'IC50'; read-out: Potency MKK4 (IC50)
# T3 construct: purchased ProQinase GmbH, Freiburg, Germany (33PanQinase Assay Service)
# T3 sequence (P45985 1-399): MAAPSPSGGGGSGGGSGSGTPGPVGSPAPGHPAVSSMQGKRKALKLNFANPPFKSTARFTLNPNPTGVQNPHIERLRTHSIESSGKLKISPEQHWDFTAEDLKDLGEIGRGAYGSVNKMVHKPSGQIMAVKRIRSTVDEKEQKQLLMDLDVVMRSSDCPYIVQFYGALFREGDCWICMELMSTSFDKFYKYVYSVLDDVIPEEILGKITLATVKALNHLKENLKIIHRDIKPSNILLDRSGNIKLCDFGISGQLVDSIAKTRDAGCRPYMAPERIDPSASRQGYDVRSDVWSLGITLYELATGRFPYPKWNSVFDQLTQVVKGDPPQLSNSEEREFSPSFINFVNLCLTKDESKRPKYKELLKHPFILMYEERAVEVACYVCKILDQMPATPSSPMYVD
# Summary of the method: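 Radiometric 33PanQinase assay: kinase, substrate, ATP and compound in standard buffer, 60 min at 30 °C; 33Pi incorporation read by scintillation counting.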
# MKK7 [3] = molecular target: T4, MKK7 (Homo sapiens, UniProt O14733); test: KINOMEscan competition binding assay, MKK7; set-up: M1/R419; host or cells: HEK-293; conditions: ratio PoC (off-target)/PoC (MKK4)
# T4 sequence (O14733 1-419): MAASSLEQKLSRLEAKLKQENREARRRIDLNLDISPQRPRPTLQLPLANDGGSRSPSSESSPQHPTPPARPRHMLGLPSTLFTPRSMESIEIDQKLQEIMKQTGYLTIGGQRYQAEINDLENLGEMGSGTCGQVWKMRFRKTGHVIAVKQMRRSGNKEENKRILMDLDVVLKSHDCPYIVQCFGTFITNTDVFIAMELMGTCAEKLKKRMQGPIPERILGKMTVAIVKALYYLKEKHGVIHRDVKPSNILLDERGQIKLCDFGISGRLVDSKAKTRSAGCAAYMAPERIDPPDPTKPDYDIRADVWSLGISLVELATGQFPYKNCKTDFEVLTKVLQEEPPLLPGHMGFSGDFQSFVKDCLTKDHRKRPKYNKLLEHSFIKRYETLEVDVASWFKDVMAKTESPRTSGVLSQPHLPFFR
# Summary of the method: as §1
# JNK1 [4] = molecular target: T5, JNK1 (Homo sapiens, UniProt P45983); test: KINOMEscan competition binding assay, JNK1; set-up: M1/Q384; host or cells: HEK-293; conditions: ratio PoC (off-target)/PoC (MKK4)
# Summary of the method: as §1
# Target sequence in this assay (P45983 1-384 isoform P45983-2): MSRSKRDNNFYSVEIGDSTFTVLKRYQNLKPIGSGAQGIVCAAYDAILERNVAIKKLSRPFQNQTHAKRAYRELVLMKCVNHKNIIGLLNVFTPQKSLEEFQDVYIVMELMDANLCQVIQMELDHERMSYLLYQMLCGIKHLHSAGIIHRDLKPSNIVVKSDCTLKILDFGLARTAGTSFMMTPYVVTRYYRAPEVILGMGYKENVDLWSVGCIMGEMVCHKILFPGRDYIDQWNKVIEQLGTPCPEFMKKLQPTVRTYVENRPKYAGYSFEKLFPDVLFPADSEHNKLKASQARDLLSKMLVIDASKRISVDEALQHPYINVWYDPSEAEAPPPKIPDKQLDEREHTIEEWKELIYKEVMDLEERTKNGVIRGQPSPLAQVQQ
# JNK1 [5] = molecular target: T5, JNK1; test: 33PanQinase enzyme assay, JNK1; format: biochemical; set-up: purchased ProQinase GmbH, Freiburg, Germany (33PanQinase Assay Service); conditions: ratio IC50(JNK1)/IC50(MKK4)
# Summary of the method: (§2)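 Radiometric 33PanQinase format: kinase with substrate, ATP and compound (added in 10% DMSO stock) incubated 60 min at 30° C, stopped with 2% H3PO4, ^33Pi incorporation counted by scintillation. Single-concentration data given as % residual activity; IC50 by least-squares fit, with selectivity as IC50(off-target)/IC50(MKK4).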
# Target sequence in this assay (P45983 whole entry): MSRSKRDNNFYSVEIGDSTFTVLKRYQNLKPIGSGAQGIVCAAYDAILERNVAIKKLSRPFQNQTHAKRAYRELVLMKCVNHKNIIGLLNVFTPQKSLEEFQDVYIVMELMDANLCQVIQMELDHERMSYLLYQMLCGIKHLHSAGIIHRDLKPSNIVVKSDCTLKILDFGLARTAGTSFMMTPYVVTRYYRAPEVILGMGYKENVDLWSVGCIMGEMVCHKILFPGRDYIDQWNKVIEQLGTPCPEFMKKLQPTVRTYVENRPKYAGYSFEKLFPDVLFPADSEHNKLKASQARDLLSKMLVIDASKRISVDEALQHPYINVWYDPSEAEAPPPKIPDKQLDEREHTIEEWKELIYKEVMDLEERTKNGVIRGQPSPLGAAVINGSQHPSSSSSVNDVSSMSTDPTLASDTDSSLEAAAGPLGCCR
# MKK7 [6] = molecular target: T4, MKK7; test: 33PanQinase enzyme assay, MKK7; format: biochemical; set-up: purchased ProQinase GmbH, Freiburg, Germany (33PanQinase Assay Service); conditions: ratio IC50(MKK7)/IC50(MKK4)
# Summary of the method: as §2
# T2 sequence (P15056 whole entry, species assumed): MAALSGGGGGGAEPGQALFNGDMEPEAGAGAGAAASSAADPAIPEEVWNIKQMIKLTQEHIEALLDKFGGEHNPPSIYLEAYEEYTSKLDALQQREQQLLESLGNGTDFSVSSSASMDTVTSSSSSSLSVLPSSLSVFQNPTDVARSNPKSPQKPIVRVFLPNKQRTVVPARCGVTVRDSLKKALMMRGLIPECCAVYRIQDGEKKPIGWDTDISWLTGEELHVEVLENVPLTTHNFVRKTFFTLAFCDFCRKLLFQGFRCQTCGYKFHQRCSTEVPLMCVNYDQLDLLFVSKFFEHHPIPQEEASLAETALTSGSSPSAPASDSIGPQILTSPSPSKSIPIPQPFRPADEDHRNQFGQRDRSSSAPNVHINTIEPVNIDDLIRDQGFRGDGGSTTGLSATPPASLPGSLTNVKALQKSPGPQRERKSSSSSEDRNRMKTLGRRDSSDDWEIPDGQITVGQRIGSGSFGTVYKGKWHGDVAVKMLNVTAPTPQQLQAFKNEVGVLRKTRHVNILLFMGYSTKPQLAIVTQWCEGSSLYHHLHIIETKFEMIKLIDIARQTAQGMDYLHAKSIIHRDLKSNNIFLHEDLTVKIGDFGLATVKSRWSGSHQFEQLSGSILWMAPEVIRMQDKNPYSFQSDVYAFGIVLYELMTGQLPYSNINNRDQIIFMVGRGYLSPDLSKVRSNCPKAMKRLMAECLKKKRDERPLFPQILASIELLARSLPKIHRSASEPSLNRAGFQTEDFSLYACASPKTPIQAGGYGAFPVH
MKK4 [% Ctrl @ 100 nM (MKK4 [1]),selectivity based on % Ctrl @100 nM vs. Braf (BRaf),IC50 (MKK4 [2]) [µM],selectivity based on % Ctrl @100 nM vs. MKK7 (MKK7 [3]),selectivity based on % Ctrl @100 nM vs. JNK1 (JNK1 [4]),"Selectivity JNK1, IC50(off-target)/IC50(MKK4) (JNK1 [5])",SMILES,"Selectivity IVIKK7, IC50(off-target)/IC50(MKK4) (MKK7 [6])"
+++ (PoC < 1),++ (100 ≥ ratio > 10),0.1 to 1,+++ (Ratio > 100),+++ (Ratio > 100),◯ (3 ≥ IC50(off-target)/IC50(MKK4)),CCCS(=O)(=O)Nc1ccc(F)c(C(=O)c2c[nH]c3ncc(-c4cccnc4)cc23)c1F [Example 58],++ (100 ≥ IC50(off-target)/IC50(MKK4) > 10)
+ (3 ≤ PoC < 30),◯ (3 ≥ Ratio),1 to 10,+ (10 ≥ ratio > 3),+ (10 ≥ ratio > 3),◯ (3 ≥ IC50(off-target)/IC50(MKK4)),"CCCS(=O)(=O)Nc1ccc(F)c(C(=O)c2c[nH]c3ncc(C4CCNCC4)cc23)c1F [Example 241, N-(2,4-difluoro-3-(5-(piperidin-4-yl)-1-pyrrolo[2,3-b]pyridine-3-carbonyl)phenyl)propane-1-sulfonamide]",+ (10 ≥ IC50(off-target)/IC50(MKK4) > 3)
+++ (PoC < 1),+ (10 ≥ ratio > 3),0.1 to 1,+++ (Ratio > 100),+++ (Ratio > 100),◯ (3 ≥ IC50(off-target)/IC50(MKK4)),"CCCS(=O)(=O)Nc1ccc(F)c(C(=O)c2c[nH]c3ncc(-c4c[nH]c(=O)cn4)cc23)c1F [Example 88, N-(2,4-difluoro-3-(5-(5-oxo-4,5-dihydropyrazin-2-yl)-1H-pyrrolo[2,3-b]pyridine-3-carbonyl)phenyl)propane-1-sulfonamide]",++ (100 ≥ IC50(off-target)/IC50(MKK4) > 10)
+ (3 ≤ PoC < 30),◯ (3 ≥ Ratio),1 to 10,++ (100 ≥ ratio > 10),++ (100 ≥ ratio > 10),◯ (3 ≥ IC50(off-target)/IC50(MKK4)),"CCCS(=O)(=O)Nc1ccc(F)c(C(=O)c2c[nH]c3ncc(-c4nncs4)cc23)c1F [Example 86, N-(3-(5-(1,3,4-thiadiazol-2-yl)-1H-pyrrolo[2,3-b]pyridine-3-carbonyl)-2,4-difluorophenyl)propane-1-sulfonamide]",++ (100 ≥ IC50(off-target)/IC50(MKK4) > 10)
+++ (PoC < 1),++ (100 ≥ ratio > 10),0.1 to 1,+++ (Ratio > 100),+++ (Ratio > 100),◯ (3 ≥ IC50(off-target)/IC50(MKK4)),"CCCS(=O)(=O)Nc1ccc(F)c(C(=O)c2c[nH]c3ncc(C4CCC4)cc23)c1F [Example 123, N-(3-(5-cyclobutyl-1-pyrrolo[2,3-b]pyridine-3-carbonyl)-2,4-difluorophenyl)propane-1-sulfonamide]",+++ (IC50(off-target)/IC50(MKK4) > 100)

SMILES,MKK4 [% Ctrl @ 100 nM (MKK4 [1]),selectivity based on % Ctrl @100 nM vs. Braf (BRaf),IC50 (MKK4 [2]) [µM],selectivity based on % Ctrl @100 nM vs. MKK7 (MKK7 [3]),selectivity based on % Ctrl @100 nM vs. JNK1 (JNK1 [4]),"Selectivity JNK1, IC50(off-target)/IC50(MKK4) (JNK1 [5])","Selectivity IVIKK7, IC50(off-target)/IC50(MKK4) (MKK7 [6])"
"CS(=O)(=O)Nc1c(F)ccc(C(=O)c2c[nH]c3ncc(-c4cccnc4)cc23)c1F [Example 228, N-(2,6-difluoro-3-(5-(pyridin-3-yl)-1H-pyrrolo[2,3-b]pyridine-3-carbonyl)phenyl)methanesulfonamide]",+++ (PoC < 1),+++ (Ratio > 100),0.1 to 1,+++ (Ratio > 100),+++ (Ratio > 100),++ (100 ≥ IC50(off-target)/IC50(MKK4) > 10),++ (100 ≥ IC50(off-target)/IC50(MKK4) > 10)
